The record followed here is patent US6927230B2, “Triazole derivatives” (Fujisawa Pharmaceutical Co., Ltd., priority 2001, dated 2005).

pIC50: −log10 of the molar value. Read-outs that look alike come from different tables or passages of the source. Where only a bound is given, the exact number is not on record here.

The target of one data set is T1, COX-I (Homo sapiens, UniProt P23219).
T1 construct: Fresh blood was collected by syringe without anticoagulants from volunteers with consent; from tissue; host or cells: fresh human whole blood from volunteers, no anticoagulant, allowed to clot
Description: Whole blood assay for COX-I (TXB2 production). In kind it is cell-based. The procedure: Fresh blood was collected by syringe without anticoagulants from volunteers with consent. The subjects had no apparent inflammatory conditions and had not taken any medication for at least 7 days prior to blood collection. 500 μl aliquots of human whole blood were immediately incubated with 2 μl of either DMSO vehicle or a test compound at final concentrations for 1 hr at 37 C. to allow the blood to clot. Appropriate treatments (no incubation) were used as blanks. At the end of the incubation, 5 μl of 250 mM Indomethacin was added to stop the reaction. The blood was centrifuged at 6000×g for 5 min at 4 C to obtain serum. A 100 μl aliquot of serum was mixed with 400 μl methanol for protein precipitation. The supernatant was obtained by centrifuging at 6000×g for 5 min at 4 C and was assayed for TXB2 using an enzyme immunoassay kit according to the manufacturer's procedure. For a test compound, the results were expressed as percent inhibition of TXB2 production relative to control incubations containing DMSO vehicle. The data were analyzed by that a test compound at the indicated concentrations was changed log value and was applied simple linear regression. IC50 value was calculated by least squares method.

A further data set deals with T2, COX-II (Homo sapiens, UniProt P35354).
T2 construct: lipopolysaccharide for 24 hr at 37 C for induction of COX-2; from tissue; host or cells: fresh heparinized human whole blood from volunteers, LPS-stimulated for 24 hr
T2 sequence (P35354 18-604): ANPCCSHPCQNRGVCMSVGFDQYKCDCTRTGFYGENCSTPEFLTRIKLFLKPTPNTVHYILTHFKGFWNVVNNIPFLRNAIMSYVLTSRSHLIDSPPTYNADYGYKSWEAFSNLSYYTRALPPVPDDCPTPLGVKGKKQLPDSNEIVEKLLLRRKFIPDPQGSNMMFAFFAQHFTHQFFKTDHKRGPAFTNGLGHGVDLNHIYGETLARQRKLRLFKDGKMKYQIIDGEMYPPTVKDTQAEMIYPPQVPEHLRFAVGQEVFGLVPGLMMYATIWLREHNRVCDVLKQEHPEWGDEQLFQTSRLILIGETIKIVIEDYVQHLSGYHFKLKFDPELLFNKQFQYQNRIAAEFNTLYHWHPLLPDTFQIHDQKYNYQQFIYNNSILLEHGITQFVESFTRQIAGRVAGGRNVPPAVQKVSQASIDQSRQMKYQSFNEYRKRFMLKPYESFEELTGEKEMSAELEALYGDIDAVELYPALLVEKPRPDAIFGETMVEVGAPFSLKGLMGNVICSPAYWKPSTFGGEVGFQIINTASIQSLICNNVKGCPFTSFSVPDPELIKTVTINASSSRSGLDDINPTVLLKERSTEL
Description: Whole blood assay for COX-II (LPS-induced PGE2 production). In kind it is cell-based. The procedure:
Fresh blood was collected in heparinized tubes by syringe from volunteers with consent. The subjects had no apparent inflammatory conditions and had not taken any medication for at least 7 days prior to blood collection. 500 μl aliquots of human whole blood were incubated with either 2 μl DMSO vehicle or 2 μl of a test compound at final concentrations for 15 min at 37 C This was followed by incubation of the blood with 10 μl of 5 mg/ml lipopolysaccharide for 24 hr at 37 C for induction of COX-2. Appropriate PBS treatments (no LPS) were used as blanks. At the end of the incubation, the blood was centrifuged at 6000×g for 5 min at 4 C to obtain plasma. A 100 μl aliquot of plasma was mixed with 400 μl methanol for protein precipitation. The supernatant was obtained by centrifuging at 6000×g for 5 min at 4 C and was assayed for PGE2 using a radioimmunoassay kit after conversion of PGE2 to its methyl oximate derivative according to the manufacturer's procedure. For a test compound, the results were expressed as percent inhibition of PGE2 production relative to control incubations containing DMSO vehicle. The data were analyzed by that a test compound at the indicated concentrations was changed log value and was applied simple linear regression. IC50 value was calculated by least squares method.

The subject of a further data set is platelet aggregation. Description: Inhibiting activity on aggregation of platelet (collagen-induced, platelet-rich plasma). In kind it is cell-based. Conditions: human platelet-rich plasma, collagen 0.5 μg/mL as agonist; read-out: IC50 (inhibition of platelet aggregation). The procedure:
Blood from healthy human volunteers was collected into plastic vessels containing 3.8% sodium citrate (1/10 volume). The subject had no taken any compounds for at least seven days prior to blood collection. Platelet-rich plasma was obtained from the supernatant fraction of blood after centrifugation at 1200 r.p.m. for 10 min. Platelet-poor plasma was obtained by centrifugation of the remaining blood at 3000 r.p.m. for 10 min.
Platelet aggregation was measured according to the turbidimetric method with an aggregometer (Hema Tracer). In the cuvette, platelet-rich plasma was pre-incubated for 2 min at 37 C after the addition of compounds or vehicle. In order to quantify the inhibitory effects of each compound, the maximum increase in light transmission was determined from the aggregation curve for 7 min after the addition of agonist. We used collagen as agonist of platelet aggregation in this study. The final concentration of collagen was 0.5 μg/mL. The effect of each compound was expressed as percentage inhibition agonist-induced platelet aggregation compared with vehicle treatment. Data are presented as the mean±S.E.M. for six experiments. The IC50 value was obtained by linear regression, and is expressed as the compound concentration required to produce 50% inhibition of agonist-induced platelet aggregation in comparison to vehicle treatment.

Data set [1] deals with adjuvant arthritis in Lewis rats. The data set can be described thus: Analgesic activity: effect on adjuvant arthritis in rats (Randall-Selitto pain threshold). In kind it is in vivo, rat. Conditions: dose 3.2 mg/kg; ratio of mechanical pain threshold of treated vs non-treated arthritic rats, 2 hr after administration; ratio of 1.5 = effective dose.
Setting [2] is: human whole blood, 1 hr at 37 C, TXB2 production, read-out: COX-I IC50.
The mark [3] stands for this setting: human whole blood, LPS 24 hr at 37 C, PGE2 production, read-out: COX-II IC50.

T1 sequence (P23219 24-599): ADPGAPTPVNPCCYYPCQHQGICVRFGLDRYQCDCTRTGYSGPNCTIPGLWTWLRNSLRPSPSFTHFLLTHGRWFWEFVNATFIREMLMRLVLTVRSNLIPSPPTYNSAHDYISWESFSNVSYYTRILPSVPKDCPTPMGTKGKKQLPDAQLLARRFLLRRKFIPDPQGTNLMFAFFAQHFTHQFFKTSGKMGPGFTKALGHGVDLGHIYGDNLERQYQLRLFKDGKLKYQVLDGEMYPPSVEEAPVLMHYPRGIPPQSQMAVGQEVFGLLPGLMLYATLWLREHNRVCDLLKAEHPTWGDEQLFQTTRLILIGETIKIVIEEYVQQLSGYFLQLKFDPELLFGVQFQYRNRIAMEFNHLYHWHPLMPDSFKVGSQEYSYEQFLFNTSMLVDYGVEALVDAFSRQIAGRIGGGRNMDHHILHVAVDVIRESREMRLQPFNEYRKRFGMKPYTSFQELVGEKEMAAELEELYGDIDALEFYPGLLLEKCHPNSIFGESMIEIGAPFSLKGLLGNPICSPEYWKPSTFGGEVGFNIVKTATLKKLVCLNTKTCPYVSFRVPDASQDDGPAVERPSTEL

What is called pIC50 is the IC50 on a negative log10 scale, so that one unit is a factor of ten. Turning to `COc1ccc(-n2nc(C(F)(F)F)nc2-c2ccc(OC)nc2)cc1` [Example 8, 2-methoxy-5-[1-(4-methoxyphenyl)-3-(trifluoromethyl)-1H-1,2,4-triazol-5-yl]pyridine], the values for the negative-log IC50 (pIC50) on COX-I (setting [2]) and on COX-II (setting [3]) were greater than 8.00 and less than 7.00, respectively.

On to `COc1ccc(-c2nc(OC(C)C)nn2-c2ccc(OC)cc2)cc1` [Example 23, 1,5-bis(4-methoxyphenyl)-3-(2-propoxy)-1H-1,2,4-triazole], for which the values for the pIC50 on COX-I (setting [2]) and at COX-II (setting [3]) were greater than 8.00 and less than 7.00, respectively.

Usually melting point stands for the temperature, or range, at which the solid turns liquid. Turning to `C#CCOc1nc(-c2ccc(OC)cc2)n(-c2ccc(OC)cc2)n1` [Example 17, 1,5-bis(4-methoxyphenyl)-3-(2-propynyloxy)-1H-1,2,4-triazole], the melting point lay in the range of 81 to 82 °C. In addition, the pIC50 on COX-I (setting [2]) was greater than 8.00. For the same compound, the negative logarithm of the IC50 (pIC50) at COX-II (setting [3]) is less than 7.00.

In the case of `COc1ccc(-c2nc(OCC(F)(F)F)nn2-c2ccc(OC)nc2)cc1` [15-(4), 2-methoxy-5-(5-(4-methoxyphenyl)-3-(2,2,2-trifluoroethoxy)-1H-1,2,4-triazol-1-yl)pyridine], the melting point was in the range of 63 to 64 °C. The pIC50 on COX-I (setting [2]) was greater than 8.00. Also, the pIC50 on COX-II (setting [3]) is less than 7.00. Further, the pIC50 in the data set on platelet aggregation is greater than 7.70.

As for `COc1ccc(-c2nc(OC(=O)N(C)C)nn2-c2ccc(OC)cc2)cc1` [Example 16, 1,5-bis(4-methoxyphenyl)-1H-1,2,4-triazol-3-yl dimethylcarbamate], the melting point lay within 121 to 123 °C. The compound also showed a negative-log IC50 (pIC50) on COX-I greater than 8.00. Moreover, on COX-II, the pIC50 was less than 7.00.

Take `COc1ccc(-c2nc(SC)nn2-c2ccc(OC)cc2)cc1` [6(4), 1,5-bis(4-methoxyphenyl)-3-(methylthio)-1H-1,2,4-triazole]: the pIC50 on COX-I (setting [2]) was greater than 8.00; on COX-II (setting [3]), less than 7.00.

On to `COc1ccc(-c2nc(OC)nn2-c2ccc(OC)cc2)cc1` [5(4), 3-Methoxy-1,5-bis(4-methoxyphenyl)-1H-1,2,4-triazole], for which, in data set [1], the “The coefficient of analgesic” value is “>=1.5”. Further, the pIC50 with platelet aggregation is greater than 7.70.

For `COc1ccc(-c2nc(OC3CCCCC3)nn2-c2ccc(OC)cc2)cc1` [Example 25, 1,5-bis(4-methoxyphenyl)-3-cyclohexyloxy-1H-1,2,4-triazole], in data set [1], the “The coefficient of analgesic” value is listed as “>=1.5”. The pIC50 is greater than 8.00 at COX-I (setting [2]), less than 7.00 at COX-II (setting [3]) and greater than 7.70 in the data set on platelet aggregation.

As to `COc1ccc(-c2nc(OCC(=O)N(C)C)nn2-c2ccc(OC)cc2)cc1` [Example 21, 2-{[1,5-bis(4-methoxyphenyl)-1H-1,2,4-triazol-3-yl]oxy}-N,N-dimethylacetamide], the results for the pIC50 at COX-I (setting [2]) and at COX-II (setting [3]) were greater than 8.00 and less than 7.00, respectively.

Take `COc1ccc(-c2nc(OCc3cc(C)on3)nn2-c2ccc(OC)cc2)cc1` [Example 19, 1,5-bis(4-methoxyphenyl)-3-[(5-methyl-3-isoxazolyl)methoxy]-1H-1,2,4-triazole]: the figures for the negative-log IC50 (pIC50) at COX-I (setting [2]), on COX-II (setting [3]) and in the data set on platelet aggregation were greater than 8.00, less than 7.00 and greater than 7.70, respectively.

`COc1ccc(-c2nc(OCc3ccc(Cl)cc3)nn2-c2ccc(OC)cc2)cc1` [Example 26, 1,5-bis(4-methoxyphenyl)-3-(4-chlorophenylmethoxy)-1H-1,2,4-triazole]: the values for the pIC50 at COX-I (setting [2]) and on COX-II (setting [3]) were greater than 8.00 and less than 7.00, respectively.

Turning to `COc1ccc(-n2nc(OCC(F)(F)F)nc2-c2ccc(OC)nc2)cc1` [14-(3), 2-methoxy-5-(1-(4-methoxyphenyl)-3-(2,2,2-trifluoroethoxy)-1H-1,2,4-triazole-5-yl)pyridine], the melting point lay in the range of 82 to 83 °C.

In the case of `COc1ccc(-c2nc(OCc3cscn3)nn2-c2ccc(OC)cc2)cc1` [Example 20, 1,5-bis(4-methoxyphenyl)-3-(1,3-thiazol-4-ylmethoxy)-1H-1,2,4-triazole], the pIC50 at COX-I (setting [2]) is greater than 8.00; at COX-II (setting [3]), less than 7.00.

On to `COc1ccc(-c2nc(S(C)(=O)=O)nn2-c2ccc(OC)cc2)cc1` [6(6), 1,5-bis(4-methoxyphenyl)-3-(methylsulfonyl)-1H-1,2,4-triazole], for which the values for the pIC50 on COX-I (setting [2]) and on COX-II (setting [3]) were greater than 8.00 and less than 7.00, respectively.

Take `COc1ccc(-c2nc(C(F)(F)F)nn2-c2ccc(OC)nc2)cc1` [12(2), 2-methoxy-5-[5-(4-methoxyphenyl)-3-(trifluoromethyl)-1H-1,2,4-triazol-1-yl]pyridine]: the values for the pIC50 on COX-I (setting [2]) and at COX-II (setting [3]) were greater than 8.00 and less than 7.00, respectively.

`COc1ccc(-c2nc(C(F)(F)F)nn2-c2ccc(OC)cc2)cc1` [1(2), 1,5-bis(4-methoxyphenyl)-3-(trifluoromethyl)-1H-1,2,4-triazole]: the “The coefficient of analgesic” value in data set [1] is “>=1.5”. Further, the pIC50 was greater than 8.00 on COX-I (setting [2]), less than 7.00 on COX-II (setting [3]) and greater than 7.70 in the data set on platelet aggregation.
